For 9 compounds, IC50 results are on record in patent publication US20230203059A1, “MACROCYCLIC JAK INHIBITOR AND USES THEREOF” (Biopolar Hongye (Guangdong) Pharmaceutical Co. Ltd., priority 2020, published 2023).

Common to all, as to format: biochemical
The target in one test is JAK1 (Homo sapiens, UniProt P23458). As to the kind of experiment: JAK kinase activity, homogeneous time-resolved fluorescence (JAK1 reaction system). To be noted: ATP 2 μM, JAK1 protein 0.2 ng/μL; read-out: JAK 1 activity. Put shortly:
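HTRF assay: JAK1 (0.2 ng/μL) with 2 μM ATP and substrate in 50 mM Hepes pH 7.0, 5 mM MgCl2, 1 mM DTT, 1 h. Phospho-substrate antibody/XL-615 detection with EDTA; 665/615 nm ratio, excitation 320 nm. IC50 from Hill-type fit against no-enzyme and no-compound controls.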

The next test addresses TYK2 (Homo sapiens, UniProt P29597). As to the kind of experiment: JAK kinase activity, homogeneous time-resolved fluorescence (TYK2 reaction system). Particulars: ATP 2 μM, TYK2 protein 0.2 ng/μL; read-out: TYK 2 activity. Put shortly: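 Activity read as the 665 nm/615 nm ratio after adding EDTA-containing detection mix with anti-phospho-substrate antibody and XL-615. Beforehand, 0.2 ng/μL TYK2, 2 μM ATP, substrate and compound reacted 1 h in pH 7.0 Hepes buffer with MgCl2 and DTT. IC50 fitted with Hill-slope equation.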

For a further test, the target named is JAK2 (Homo sapiens, UniProt O60674). As to the kind of experiment: JAK kinase activity, homogeneous time-resolved fluorescence (JAK2 reaction system). Particulars: ATP 2 μM, JAK2 protein 0.01 ng/μL. Put shortly:
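IC50 derived by Hill-equation fit of the 665/615 nm time-resolved fluorescence ratio after EDTA-containing detection mix with anti-phosphosubstrate antibody. Preceding 1 h reaction contained 2 μM ATP, 0.01 ng/μL JAK2, substrate, 50 mM Hepes pH 7.0, 5 mM MgCl2, 1 mM DTT.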

Another test addresses T1, JAK3 (Homo sapiens, UniProt P52333).
T1 sequence (P52333 1-1124): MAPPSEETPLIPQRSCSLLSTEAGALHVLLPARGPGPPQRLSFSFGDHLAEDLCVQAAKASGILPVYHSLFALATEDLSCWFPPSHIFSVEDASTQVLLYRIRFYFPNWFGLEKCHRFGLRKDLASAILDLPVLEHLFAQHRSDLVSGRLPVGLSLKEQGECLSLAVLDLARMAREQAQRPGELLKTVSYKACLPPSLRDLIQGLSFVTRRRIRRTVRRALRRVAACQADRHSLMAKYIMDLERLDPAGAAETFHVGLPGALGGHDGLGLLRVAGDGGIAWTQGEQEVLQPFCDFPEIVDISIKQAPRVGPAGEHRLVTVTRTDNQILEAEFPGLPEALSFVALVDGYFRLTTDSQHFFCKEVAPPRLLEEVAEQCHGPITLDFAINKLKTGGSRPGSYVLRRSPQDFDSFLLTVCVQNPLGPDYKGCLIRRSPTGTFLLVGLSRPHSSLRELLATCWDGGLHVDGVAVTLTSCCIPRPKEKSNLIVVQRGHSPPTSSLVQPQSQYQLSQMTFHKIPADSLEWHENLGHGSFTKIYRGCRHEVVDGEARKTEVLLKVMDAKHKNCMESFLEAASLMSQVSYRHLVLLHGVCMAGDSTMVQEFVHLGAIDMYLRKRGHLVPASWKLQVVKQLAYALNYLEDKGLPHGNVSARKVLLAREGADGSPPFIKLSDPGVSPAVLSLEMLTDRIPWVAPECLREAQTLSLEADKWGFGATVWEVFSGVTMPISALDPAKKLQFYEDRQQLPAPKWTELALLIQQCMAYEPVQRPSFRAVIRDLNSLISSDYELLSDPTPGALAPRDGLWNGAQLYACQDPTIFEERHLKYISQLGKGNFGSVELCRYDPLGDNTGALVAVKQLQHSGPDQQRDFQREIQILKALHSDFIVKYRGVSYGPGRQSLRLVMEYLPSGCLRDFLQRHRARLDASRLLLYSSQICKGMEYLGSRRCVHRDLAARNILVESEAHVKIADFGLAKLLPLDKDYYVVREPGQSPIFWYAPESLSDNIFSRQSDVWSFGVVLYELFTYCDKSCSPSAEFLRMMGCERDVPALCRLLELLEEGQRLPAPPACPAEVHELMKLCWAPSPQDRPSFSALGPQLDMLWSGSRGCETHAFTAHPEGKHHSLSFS
As to the kind of experiment: JAK kinase activity, homogeneous time-resolved fluorescence (JAK3 reaction system). To be noted: ATP 2 μM, JAK3 protein 0.04 ng/μL; read-out: JAK 3 activity.

Chain of JAK2 (O60674 whole entry): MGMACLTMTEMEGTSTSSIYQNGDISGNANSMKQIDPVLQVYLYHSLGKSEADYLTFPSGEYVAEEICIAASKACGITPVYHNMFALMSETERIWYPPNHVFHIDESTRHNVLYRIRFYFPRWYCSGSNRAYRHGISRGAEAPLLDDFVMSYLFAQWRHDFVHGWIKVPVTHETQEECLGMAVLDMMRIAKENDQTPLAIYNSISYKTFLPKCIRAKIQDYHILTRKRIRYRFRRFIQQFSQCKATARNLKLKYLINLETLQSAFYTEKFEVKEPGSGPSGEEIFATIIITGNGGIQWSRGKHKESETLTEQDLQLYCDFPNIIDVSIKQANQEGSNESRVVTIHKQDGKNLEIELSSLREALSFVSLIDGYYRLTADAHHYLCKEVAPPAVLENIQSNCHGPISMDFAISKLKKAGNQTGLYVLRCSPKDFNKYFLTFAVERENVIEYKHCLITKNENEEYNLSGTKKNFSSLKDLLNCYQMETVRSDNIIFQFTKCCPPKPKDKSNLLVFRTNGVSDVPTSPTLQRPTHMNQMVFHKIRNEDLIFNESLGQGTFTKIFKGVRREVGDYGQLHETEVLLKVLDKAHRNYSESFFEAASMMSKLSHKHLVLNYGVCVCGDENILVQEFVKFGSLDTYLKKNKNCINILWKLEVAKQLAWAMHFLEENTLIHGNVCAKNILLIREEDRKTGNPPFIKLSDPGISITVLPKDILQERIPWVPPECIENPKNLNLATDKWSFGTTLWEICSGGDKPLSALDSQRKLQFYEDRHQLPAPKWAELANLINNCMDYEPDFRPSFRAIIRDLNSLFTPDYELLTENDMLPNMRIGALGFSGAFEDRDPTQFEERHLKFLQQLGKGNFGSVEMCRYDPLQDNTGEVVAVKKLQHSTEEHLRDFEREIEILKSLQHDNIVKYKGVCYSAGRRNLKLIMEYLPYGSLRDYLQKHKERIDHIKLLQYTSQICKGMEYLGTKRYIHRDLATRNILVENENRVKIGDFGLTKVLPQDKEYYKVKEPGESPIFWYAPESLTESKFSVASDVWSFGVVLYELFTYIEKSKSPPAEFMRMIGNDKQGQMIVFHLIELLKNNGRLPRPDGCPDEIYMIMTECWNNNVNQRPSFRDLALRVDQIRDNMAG
Chain of TYK2 (P29597 whole entry): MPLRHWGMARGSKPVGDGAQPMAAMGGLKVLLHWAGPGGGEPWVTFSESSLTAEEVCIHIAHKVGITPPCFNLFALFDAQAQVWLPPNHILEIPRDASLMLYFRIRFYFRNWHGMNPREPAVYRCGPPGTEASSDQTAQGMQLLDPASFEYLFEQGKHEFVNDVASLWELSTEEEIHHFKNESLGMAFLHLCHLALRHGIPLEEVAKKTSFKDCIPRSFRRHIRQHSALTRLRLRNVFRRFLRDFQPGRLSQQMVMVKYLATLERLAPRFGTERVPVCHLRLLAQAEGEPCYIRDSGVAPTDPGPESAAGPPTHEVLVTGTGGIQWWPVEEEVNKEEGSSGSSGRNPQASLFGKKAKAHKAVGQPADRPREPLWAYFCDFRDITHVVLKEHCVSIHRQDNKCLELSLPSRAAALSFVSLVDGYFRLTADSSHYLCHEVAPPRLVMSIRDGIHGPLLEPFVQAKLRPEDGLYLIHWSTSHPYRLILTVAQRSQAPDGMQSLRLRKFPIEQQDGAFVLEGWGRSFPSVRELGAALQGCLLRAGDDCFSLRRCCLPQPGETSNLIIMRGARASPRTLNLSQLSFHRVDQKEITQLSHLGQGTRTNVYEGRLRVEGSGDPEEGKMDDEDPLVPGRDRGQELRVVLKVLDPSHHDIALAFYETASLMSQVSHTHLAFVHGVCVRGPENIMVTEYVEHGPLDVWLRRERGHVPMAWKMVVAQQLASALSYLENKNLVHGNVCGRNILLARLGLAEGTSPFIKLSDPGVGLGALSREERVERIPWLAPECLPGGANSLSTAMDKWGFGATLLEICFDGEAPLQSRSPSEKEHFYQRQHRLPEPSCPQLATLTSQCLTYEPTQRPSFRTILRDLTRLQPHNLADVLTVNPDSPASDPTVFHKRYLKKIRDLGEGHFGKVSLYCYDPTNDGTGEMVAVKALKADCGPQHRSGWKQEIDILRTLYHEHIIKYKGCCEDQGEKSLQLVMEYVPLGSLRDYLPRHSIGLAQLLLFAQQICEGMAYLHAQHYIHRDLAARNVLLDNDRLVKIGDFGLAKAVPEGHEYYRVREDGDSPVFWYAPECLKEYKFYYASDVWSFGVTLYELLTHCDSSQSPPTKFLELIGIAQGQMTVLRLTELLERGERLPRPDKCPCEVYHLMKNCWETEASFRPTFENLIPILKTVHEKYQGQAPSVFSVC
Chain of JAK1 (P23458 whole entry): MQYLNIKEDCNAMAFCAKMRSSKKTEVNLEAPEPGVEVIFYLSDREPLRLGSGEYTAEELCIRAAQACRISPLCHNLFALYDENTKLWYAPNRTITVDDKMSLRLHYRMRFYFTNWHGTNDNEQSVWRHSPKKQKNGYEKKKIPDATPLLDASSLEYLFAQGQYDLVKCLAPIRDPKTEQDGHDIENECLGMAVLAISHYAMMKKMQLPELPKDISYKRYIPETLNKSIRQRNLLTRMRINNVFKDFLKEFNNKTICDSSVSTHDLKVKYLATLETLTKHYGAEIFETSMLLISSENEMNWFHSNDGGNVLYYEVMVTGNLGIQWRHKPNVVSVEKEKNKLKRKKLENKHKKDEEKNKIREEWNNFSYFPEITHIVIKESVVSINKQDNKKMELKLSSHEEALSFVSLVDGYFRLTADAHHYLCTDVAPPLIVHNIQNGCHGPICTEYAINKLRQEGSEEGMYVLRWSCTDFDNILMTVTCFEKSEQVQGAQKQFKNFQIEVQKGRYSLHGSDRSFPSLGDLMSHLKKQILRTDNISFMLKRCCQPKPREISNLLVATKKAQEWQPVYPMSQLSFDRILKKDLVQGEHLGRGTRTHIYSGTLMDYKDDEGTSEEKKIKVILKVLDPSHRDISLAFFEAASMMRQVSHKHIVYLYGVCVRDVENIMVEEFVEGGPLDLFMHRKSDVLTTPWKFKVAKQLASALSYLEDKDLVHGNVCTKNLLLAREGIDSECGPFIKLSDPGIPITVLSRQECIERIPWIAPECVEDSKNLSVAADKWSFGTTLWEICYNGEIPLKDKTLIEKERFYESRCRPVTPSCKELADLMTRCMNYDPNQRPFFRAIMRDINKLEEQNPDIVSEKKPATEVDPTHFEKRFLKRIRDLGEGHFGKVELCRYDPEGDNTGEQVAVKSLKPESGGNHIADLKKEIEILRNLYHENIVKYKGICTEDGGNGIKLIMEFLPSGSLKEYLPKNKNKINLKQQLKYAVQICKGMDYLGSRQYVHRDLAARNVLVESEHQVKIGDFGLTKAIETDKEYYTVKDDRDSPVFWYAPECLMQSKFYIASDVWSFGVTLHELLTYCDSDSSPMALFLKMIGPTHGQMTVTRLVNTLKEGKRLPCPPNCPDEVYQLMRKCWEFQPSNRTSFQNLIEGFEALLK

Turning to `O=C1Nc2ccc(cc2)OCc2cc(ccc2OCC2CC(F)(F)C2)Nc2nccc(n2)-c2ccc1cc2[N+](=O)[O-]` [Example 209, 4^4-((3,3-difluorocyclobutyl)methoxy)-1^2-nitro-6-oxa-3,8-diaza-2(4,2)-pyrimidina-1,7(1,4),4(1,3)-tri-benzenacyclononaphane-9-one], the IC50 at JAK1 was over 10000 nM; at TYK2, over 10000 nM; on JAK2, 1000 to 10000 nM; on JAK3, 1000 to 10000 nM.
With `Nc1cc2ccc1-c1ccnc(n1)Nc1ccc(OCC3CC(F)(F)C3)c(c1)COc1ccc(cc1)NC2=O` [Example 210, 1^2-amino-4^4-((3,3-difluorocyclobutyl)methoxy)-6-oxa-3,8-diaza-2(4,2)-pyrimidina-1,7(1,4),4(1,3)-tribenz-enacyclononaphane-9-one], the IC50 on JAK1 was over 10000 nM; at TYK2, over 10000 nM; on JAK2 it was over 10000 nM; at JAK3, 11 to 100 nM.
Consider `Nc1cc2ccc1-c1ccnc(n1)Nc1ccc(OCC3CCOC3)c(c1)COc1ccc(cc1)NC2=O` (stereo not drawn) [Example 211, 1^2-amino-4^4-((tetrahydrofuran-3-yl)methoxy)-6-oxa-3,8-diaza-2(4,2)-py-rimidina-1,7(1,4),4(1,3)-tribenzena-cyclononaphane-9-one], for which the IC50 at JAK1 fell in the range of 101 to 1000 nM; at TYK2 it was 1000 to 10000 nM; at JAK2 it was 101 to 1000 nM; at JAK3, 11 to 100 nM.
Regarding `O=C1Nc2ccc(cc2)OCc2cc(ccc2OCC2CCCOC2)Nc2nccc(n2)-c2ccc1cc2[N+](=O)[O-]` (stereo not drawn) [Example 212, 1^2-nitro-4^4-((tetrahydro-2H-pyran-3-yl)methoxy)-6-oxa-3,8-diaza-2(4,2)-pyrimidina-1,7(1,4),4(1,3)-tri-benzenacyclononaphane-9-one], the IC50 at JAK1 was 1000 to 10000 nM; at TYK2, over 10000 nM; against JAK2 it was 1000 to 10000 nM; on JAK3 it was 1000 to 10000 nM.
Turning to `Nc1cc2ccc1-c1ccnc(n1)Nc1ccc(OCC3CCCOC3)c(c1)COc1ccc(cc1)NC2=O` (stereo not drawn) [Example 213, 1^2-amino-4^4-((tetrahydro-2H-pyran-3-yl)methoxy)-6-oxa-3,8-diaza-2(4,2)-pyrimidina-1,7(1,4),4(1,3)-tri-benzenacyclononaphane-9-one], the IC50 is 1000 to 10000 nM on JAK1, over 10000 nM on TYK2, 1000 to 10000 nM at JAK2 and 11 to 100 nM at JAK3.
Take `Nc1cc2ccc1-c1ccnc(n1)Nc1ccc(OCC3COC3)c(c1)COc1ccc(cc1)NC2=O` [Example 214, 1-amino-4^4-(oxetan-3-ylmethoxy)-6-oxa-3,8-diaza-2(4,2)-pyrimidina-1,7(1,4)4(1,3)-tribenzenacyclonona-phane-9-one]: the IC50 on JAK1 was 1000 to 10000 nM; on TYK2 it was 1000 to 10000 nM; against JAK2, 101 to 1000 nM; on JAK3 it was 11 to 100 nM.
For `O=C1Nc2ccc(cc2)OCc2cc(ccc2OC2CCCC2)Nc2nccc(n2)-c2ccc1cc2O` [Example 215, 4^4-(cyclopentoxy)-1^2-hydroxy-6-oxa-3,8-diaza-2 (4,2)-pyrimidina-1,7(1,4),4(1,3)-tribenzenacyclononaphane-9-one], the IC50 on JAK1 lay in the range of 1000 to 10000 nM; on TYK2, 1000 to 10000 nM; against JAK2 it was 101 to 1000 nM; at JAK3, 11 to 100 nM.
As to `O=C1Nc2ccc(cc2)OCc2cc(ccc2F)Nc2nccc(n2)-c2ccc1cc2O` [Example 216, 4^4-fluoro-1^2-hydroxy-6-oxa-3,8-dia-za-2(4,2)-pyrimidina-1,7(1,4),4(1,3)-tribenzenacyclononaphane-9-one], the IC50 on JAK1 is 101 to 1000 nM; at TYK2 it was 1000 to 10000 nM; against JAK2, 101 to 1000 nM; at JAK3 it was 11 to 100 nM.
Regarding `O=C1Nc2ccc(cc2)OCc2cc(ccc2OC2CC2)Nc2nccc(n2)-c2ccc1cc2O` [Example 217, 4^4-cyclopropoxy-1^2-hydroxy-6-oxa-3,8-diaza-2(4,2)-pyrimidina-1,7(1,4),4(1,3)-tribenzenacyclononaphane-9-one], the IC50 at JAK1 is 101 to 1000 nM; on TYK2 it was 1000 to 10000 nM; against JAK2, 101 to 1000 nM; on JAK3, 11 to 100 nM.
